Measured values from article PMC9817077, “Simple, Reliable Protocol for High-Yield Solubilization of Seedless Amyloid-β Monomer” (ACS Chemical Neuroscience, 2022).

How the values were obtained:
[1] = Thioflavin T (ThT) self-assembly (fibrillization) kinetics assay; format: physicochemical
Description: Peptide was prepared using either of the aforementioned protocols, with or without HFIP pretreatment, and self-assembly was initiated by rapid dilution into the fibrillization buffer to a final concentration of 1–10 μM peptide. […] The success of this strategy was confirmed empirically.
Self-assembly experiments were carried out in a 20 mM sodium phosphate buffer (pH 8) containing 200 μM EDTA, 1 mM NaN3, and 20 μM ThT. […] Correction can be carried out before or after this addition. However, if correction is carried out after the peptide has been added to the buffer stock, the peptide will already have begun to aggregate so that the delay could influence the results. In addition, adding acid to lower the pH would modify the buffer composition and increase the ionic strength from its intended value. As a better alternative, one can correct the pH in advance, by preparing a buffer stock that is more acidic than the final intended solution but reliably reaches the correct pH following the addition of a known quantity of NaOH and Aβ(1-42). Note that this correction is only necessary when preparing Aβ(1-42) solutions by direct addition of the peptide from NaOH stock and is not necessary when exchanging the peptide into the correct buffer by SEC.
The ratio of NaH2PO4 and Na2HPO4 in the 5× buffer stock was chosen to give the correct pH when mixed with the NaOH and other buffer constituents, and was initially based on calculation and subsequently optimized experimentally. The final intended quantities of H2PO4^– and HPO4^2– can be calculated from the Henderson-Hasselbalch eq.[97] Given an acid dissociation constant K2 ≈ 6.94 at the ionic strength of the self-assembly buffer,[98] one expects the final self-assembly buffer to contain approximately 1.6 mM H2PO4^– and 18.4 mM HPO4^2–. When NaOH is added to phosphate buffer, most of the hydroxide is consumed in the reaction OH^– + H2PO4^– → H2O + HPO4^2–. Therefore, if 10 mM NaOH is incorporated into the final buffer at 10% of the final volume, 1 mM H2PO4^– will be converted to 1 mM HPO4^2–. Thus, to achieve the correct final ratio of phosphate ions, the 5× buffer stock will need to contain 5 × (1.6 + 1.0) mM = 13 mM NaH2PO4 and 5 × (18.4 – 1.0) mM = 87 mM Na2HPO4. Similarly, if 50 mM NaOH is used, the 5× buffer stock will need to contain 5 × (1.6 + 5.0) mM = 33 mM NaH2PO4 and 5 × (18.4 – 5.0) mM = 67 mM Na2HPO4. In practice, these calculations were used to inform preparation of a test buffer stock, which was then used to prepare a test self-assembly buffer using the ratios described above. If the pH of this test solution was outside the 7.98–8.02 range, a new test buffer stock was prepared with a modified composition. […]

[2] = Re-freezing of thawed aliquots (AF4-MALS and ThT); format: physicochemical; conditions: 50 mM NaOH, 5 min sonication; re-frozen in liquid N2, on pre-cooled metal or in a rack at −80 °C
Description: 174 S6 Re-freezing of Aβ solubilized in 50 mM NaOH
177 used on multiple separate occasions. Aliquots that had been prepared by sonication for 5 min 178 in 50 mM NaOH were thawed and then re-frozen according to one of three methods: rapid 179 freezing by immersion in liquid N2 (freezing time < 1 s); freezing by placing the Eppendorf 180 tube in contact with pre-cooled metal at -80 °C (< 1 min); and simply placing the sample 181 in a rack in the -80 °C freezer (< 5 min). While the former was obviously preferable, the 182 other two methods were tested due to their convenience, and to ascertain whether improper […]
185 indistinguishable the results obtained with ﬁrst-use aliquots (Figures 3-4 in the main text), […]
Therefore, Aβ(1-42) aliquots
187 […] 188 convenient when performing a range of experiments requiring diﬀerent quantities of peptide.
190 temperature is -80 °C, use of liquid N2 is still recommended whenever possible.
The corresponding LS 90o signal. (c) The normalized ThT self-assembly kinetics. All panels use the same color scheme, which encodes the re-freezing method: red, placement in a rack in the -80 °C freezer; green, freezing by placement in contact with pre-cooled metal at -80 °C; blue, rapid freezing by immersion in liquid N2.
(1 picture or pasted object on this page, not shown here)

In the case of “Aβ(1-42): Ultrapure recombinant Aβ(1-42) purchased from rPeptide, lyophilized from HFIP; disordered amyloid-forming peptide”, the “initial ThT fluorescence” value ([1]; 50 mM NaOH samples, 4 μM peptide, 20 mM sodium phosphate pH 8, 37 °C, mean) is reported as 2.2 % of final fluorescence, the “fibrillization half-time τhalf” value ([1]; commercial recombinant samples solubilized in 50 mM NaOH, 20 mM sodium phosphate pH 8, 37 °C, concentration not given) is reported as 7700 ± 380 s and the “scaling exponent γ” value ([1]; commercial recombinant, 5 min sonication in 50 mM NaOH (sample 50-5-N-13), fit of mean half-times 1.5–4.0 μM, 20 mM sodium phosphate pH 8, 37 °C) is reported as −1.32. For the same substance, the “scaling exponent γ (slope of half-time vs Aβ(1-42) concentration, double-logarithmic)” value ([1]; re-solubilized in 10 mM NaOH with or without HFIP pretreatment, 1–5 μM peptide, 20 mM sodium phosphate pH 8.0, 200 μM EDTA, 1 mM NaN3, 20 μM ThT, 37 °C, average, SD 0.24 across 9 peptide samples) was −1.04 and the “AF4-MALS elugrams and ThT kinetics of re-frozen peptide against first-use aliquots” value [2] was “indistinguishable”.
